According to ChEMBL document CHEMBL1156829 (Proc Natl Acad Sci U S A, 2008):
pEC50: −log10 of the molar value.

Columns and labels:
Plasmodium falciparum [1] = assay: NOVARTIS: Inhibition of Plasmodium falciparum 3D7 (drug-susceptible) proliferation in erythrocyte-based infection assay; type: functional, organism-based; conditions: Plasmodium falciparum, 3D7
Plasmodium falciparum [2] = assay: NOVARTIS: Inhibition of Plasmodium falciparum W2 (drug-resistant) proliferation in erythrocyte-based infection assay; type: functional, organism-based; conditions: Plasmodium falciparum, W2; read-out: EC50
[3] = NOVARTIS: Cytotoxicity against human hepatocellular carcinoma cell line (Huh7); type: toxicity, cell-based, Huh-7; conditions: Huh7 cells (hepatocellular carcinoma cell line)

| SMILES | pEC50 (Plasmodium falciparum [1]) | pEC50 (Plasmodium falciparum [2]) | CC50 [3] [µM] |
| --- | --- | --- | --- |
| C/N=C(\N)Nc1nc(C)c2cc(OC)ccc2n1 | 6.18 | 6.14 | > 10 |
| O=C(C[n+]1ccc(/C=N/O)cc1)NC12CC3CC(CC(C3)C1)C2 | < 4.90 | 5.51 | 42.2 |
| Nc1ccc(Nc2ccc(N)cc2)cc1 | 6.50 | 6.15 | > 10 |
| FC(F)(F)c1ccc(Nc2nnnc3ccccc23)cc1 | 5.11 | 5.14 | > 100 |
| NC(=O)c1ccc2[nH]c3c(c2c1)CCCC3 | < 4.90 | < 5.15 | > 100 |
| CCCCCCN(C(=O)c1ccc(CCCCC)cc1)C(CC)c1nc2ccccc2c(=O)n1-c1ccccc1OC (centres undefined) | 5.99 | 6.16 | > 10 |
| Clc1ccc(CCNC2CCN(CCc3ccccc3)CC2)cc1 | 6.82 | 6.16 | 9.6 |
| O=C(CC1SC(=Nc2ccccc2)NC1=O)Nc1cc(Cl)ccc1Cl (centres undefined) | < 4.90 | < 5.15 | > 100 |
| COC(=O)c1ccc(Cn2cc(C=O)c3ccccc32)o1 | < 5.90 | < 6.15 | > 10 |
| CC(C)CNc1nc(NCCCN2CCCCC2C)ncc1C(=O)NCCc1ccccc1 (centres undefined) | 6.42 | 6.14 | > 10 |
| c1ccc2c(NCCNc3c4ccccc4nc4ccccc34)c3ccccc3nc2c1 | 7.08 | 6.07 | 11.8 |
| CC(C)CNC(=O)c1cnc(NCCc2ccncc2)nc1NCCc1ccccc1 | 6.09 | 6.14 | > 10 |
| CC(C)NC(=O)c1ccc2c(c1)N=C(/C=C/c1ccccc1)N(CC1CCCCC1)C2 | < 5.90 | 6.16 | > 10.2 |
| CCN1CCN(C(=O)CS(=O)(=O)Cc2nc(-c3cccc(OC)c3)oc2C)CC1 | < 5.90 | < 6.15 | > 10 |
| CCN(CC)CCCC(C)Nc1nc(/C=C/c2ccccc2OC)nc2cc(Cl)ccc12 (centres undefined) | 6.06 | 6.16 | > 10 |
| C=C1[C@@H](C)[C@H]2[C@H](Cc3ccccc3)NC(=O)[C@]23C(OC(C)=O)C=C[C@@](C)(O)C(=O)[C@@H](C)CC=C[C@H]3[C@@H]1O (some centres undefined) | 5.93 | 6.15 | > 10 |
| Cc1cc(C)cc(NC(=O)c2cc(-c3ccc(Cl)cc3)nc3ccccc23)c1 | < 5.90 | < 6.15 | > 10 |
| CCOC(=O)c1c(NC(=O)c2cccnc2)sc(C)c1CC | < 5.96 | < 6.15 | > 10 |
| O=S(=O)(NCCCCNc1ccnc2cc(Cl)ccc12)c1ccc(F)cc1 | 6.47 | 6.15 | > 10 |
| CCOc1ccc(N=C2NC(=O)S/C2=C2/C(=O)Nc3ccc(Br)cc32)cc1 | < 5.90 | < 6.14 | > 10 |
| CCOC(=O)N1CCN(c2ccc(C(F)(F)F)cn2)CC1 | < 4.90 | 5.14 | > 100 |
| Cc1cccc(C)c1N(CC(=O)NCc1ccco1)S(C)(=O)=O | 6.07 | 6.14 | > 10 |
| Cc1oc2c(c1C(=O)NCC1CCCO1)C(=O)c1ccccc1C2=O (centres undefined) | 5.93 | 6.32 | 6.93 |

| SMILES | pEC50 (Plasmodium falciparum [1]) | pEC50 (Plasmodium falciparum [2]) | CC50 [3] [µM] |
| --- | --- | --- | --- |
| CCc1ccc(NC(=O)CSc2nc(C)cc(C)c2C#N)cc1 | < 5.90 | < 6.16 | > 10 |
| CCN(CC(=O)N1CCc2cc(OC)c(OC)cc2C1C)C(=O)Nc1ccc(Br)cc1 (centres undefined) | < 5.90 | < 6.16 | > 10 |
| Cc1cccc(Nc2ccccc2C(=O)OCC(=O)N2CC(=O)Nc3ccccc32)c1C | 5.33 | 5.42 | 55.1 |
| O=C1N(c2ccccc2)C[C@@H]2C[C@@H](c3ccc4nsnc4c3)N3CCC[C@@]123 | 6.05 | 6.19 | 9.25 |
| Cc1ccc(NC(=O)c2cc(C(=O)c3cc(Cl)ccc3O)cn(-c3ccc(C)c(C)c3)c2=O)cc1C | 5.09 | 5.16 | > 100 |
| COC(=O)c1c(C)oc2ccc(N(C(=O)c3ccc(C)cc3)S(=O)(=O)c3ccccc3)cc12 | < 5.77 | 6.16 | > 10 |
| CCCS(=O)(=O)N1CCC(CO)(Cc2ccccc2C(F)(F)F)CC1 | 5.90 | 6.16 | > 10 |
| COc1cc(NC(C)CCCN(Cc2ccccc2OC)C(=O)COCc2ccccc2)c2ncccc2c1 (centres undefined) | 5.95 | 6.16 | > 10 |
| O=C(Nn1c(SCc2cc(=O)n3ccccc3n2)nc2ccsc2c1=O)c1cccc(Br)c1 | < 6.03 | < 6.16 | > 10 |
| COc1cncc(-c2cncc(N3CCN(CCN(C)C)CC3)n2)c1 | 6.58 | 6.16 | > 10 |
| CCCNc1nc(OC(C(F)(F)F)C(F)(F)F)nc(OC(C(F)(F)F)C(F)(F)F)n1 | < 5.80 | < 6.15 | > 10 |
| Cc1c(Cl)cccc1-n1c(C(C)N(CCc2ccccc2)C(=O)COc2ccccc2)nc2ccccc2c1=O (centres undefined) | 6.21 | 6.15 | > 10 |
| CCCCCCN(C(=O)c1cccc(F)c1)C(CC)c1nc2ccccc2c(=O)n1-c1ccccc1OC (centres undefined) | 5.97 | 6.29 | > 7.32 |
| CN1CCN(c2cc(-c3cccnc3)nc(-c3ccncc3)n2)CC1 | 6.23 | 6.18 | > 9.55 |
| Fc1ccc2nc(Nc3nc(-c4ccccn4)cs3)sc2c1 | 5.90 | 6.67 | 3.04 |
| CCCCCCCC(=O)N1CCN(C(=O)C(NC(=O)Nc2ccc(Cl)cc2Cl)C(C)CC)CC1 (centres undefined) | < 7.39 | 6.15 | > 10 |
| COc1cc(/C=C2/SC(=Nc3ccccc3)NC2=O)ccc1OC(=O)c1ccccc1 | < 6.03 | 6.16 | > 10 |
| O=C(Nc1ccc(-c2cn3ccsc3n2)cc1)c1ccc(S(=O)(=O)N2CCCCCC2)cc1 | 6.20 | 5.91 | 17.6 |
| CCOc1ccc(CN(C(=O)COc2ccc(Cl)cc2)C(C)CCCN(CC)CC)cc1 (centres undefined) | 6.41 | 5.88 | 18.9 |
| CC(C)CNc1nc(NCCCn2ccnc2)ncc1C(=O)NCCc1ccccc1 | 6.56 | 6.16 | > 10 |
| COc1ccc(CCNc2nc(NCCCN3CCCCC3C)ncc2C(=O)NCC(C)C)cc1OC (centres undefined) | 5.94 | < 6.15 | > 10 |
| O=C(NCCCN1CCCC1=O)c1cnc(N2CCN(Cc3ccccc3)CC2)nc1NCCc1ccccc1 | 6.24 | 6.16 | > 10 |
| Cc1ccc(S(=O)(=O)N=C2C=C(Sc3nnc[nH]3)C(=O)c3ccccc32)cc1 | 5.81 | 6.05 | 12.8 |

| SMILES | pEC50 (Plasmodium falciparum [1]) | pEC50 (Plasmodium falciparum [2]) | CC50 [3] [µM] |
| --- | --- | --- | --- |
| COc1cc(C(=O)NC(c2ccc3c(c2)OCO3)c2cc(Cl)c3cccnc3c2O)cc(OC)c1OC (centres undefined) | 6.37 | 6.16 | > 10 |
| Clc1cc(C=NNC2=NCCCN2)cc(Cl)n1 | 6.61 | < 6.14 | > 10 |
| Cc1c(Cl)cccc1N1C(=O)C2C3c4ccccc4C(c4ccccc43)C2C1=O (centres undefined) | < 5.79 | 6.16 | > 10 |
| N#Cc1cc(C#N)c(N2CCN(c3cccc(Cl)n3)CC2)nc1N | 6.10 | 6.15 | > 10 |
| CN(C)c1ccc(Nc2nc(NCC3CCCO3)c3ccccc3n2)cc1 (centres undefined) | 6.07 | 6.09 | 11.3 |
| Cc1ccc(CN2C3CCCC2CC(NC(=O)Nc2cccc(F)c2)C3)cc1 (centres undefined) | 6.05 | 6.16 | > 10 |
| CCCN1CCC(N2C[C@@H](NC3CCN(CCc4ccccc4)CC3)C[C@H]2C(=O)NCCc2ccc3c(c2)OCO3)CC1 | 7.06 | 6.10 | 11.1 |
| CCC(C)(C)c1ccc(OCCOCC[n+]2ccccc2)c(C(C)(C)CC)c1 | 6.02 | 6.07 | 12.2 |
| CCCCNC(=O)C(c1cccc(OC)c1)N1C(=O)c2cc(OCCCC)ccc2NC(=O)C1CO (centres undefined) | 6.69 | 6.78 | > 2.37 |
| O=C(O)/C=C\C(=O)N(C1CCCCC1)C1CCCCC1 | < 5.90 | < 6.15 | > 10 |
| CCc1cc(=O)n(C)c(SC(C)C(=O)Nc2ccc(F)cc2)n1 (centres undefined) | 6.12 | 6.14 | > 10 |
| CS(=O)(=O)c1ccccc1S(=O)(=O)N1CCC(NC(=O)c2ccccc2Cl)(C(=O)O)CC1 | < 5.90 | < 6.14 | > 10 |
| Cc1sc2c(c1C)CN(Cc1ccco1)CN2C(=O)c1ccco1 | < 4.90 | < 5.16 | > 100 |
| CN=C1S/C(=C\c2ccc(OCC(=O)O)c(OC)c2)C(=O)N1C | < 5.90 | < 6.15 | > 10 |
| Nc1c(C(=O)NCc2ccccc2)nnn1Cc1ccc(F)cc1Cl | < 6.07 | 6.14 | > 10 |
| CCCSCCCNC(=O)c1oc2c(c1C)-c1[nH]ncc1CC2 | < 5.94 | < 6.14 | > 10 |
| COc1ccc(N(C)C(=O)CNC(=O)c2nn(-c3ccc(OC)cc3OC)c(=O)c3ccccc23)cc1 | < 5.90 | < 6.16 | > 10 |
| O=C(COC(c1ccccc1)c1c(Cl)cncc1Cl)N1CCC(c2ccccn2)C1 (centres undefined) | < 4.90 | 5.16 | > 100 |
| CC(=O)Nc1cc(C(F)(F)F)cc(C(F)(F)F)c1 | 5.88 | 6.15 | > 10 |
| Cc1ccc(CN2CCC(O)(c3ccc4oc(C(=O)NCCc5cccc(F)c5)cc4c3)CC2)cc1 | 5.38 | 5.52 | 43.5 |
| Cc1ccc(S(=O)(=O)c2c(COC(=O)c3cccc(C)c3)c(-c3ccccc3)nn2C)cc1 | 5.08 | 5.16 | > 100 |
| O=c1[nH]nc(SCc2c(F)cccc2[N+](=O)[O-])c(=O)[nH]1 | < 5.90 | < 6.16 | > 10 |
